Data published in patent EP0530343B1, “WATER SOLUBLE, NON-IONIC X-RAY CONTRASTING AGENTS AND PROCESS FOR PRODUCING THE SAME” (Dr. Franz Köhler Chemie GmbH, priority 1991, dated 1992).

How the values were obtained:
Solubility = format: physicochemical; settings: read-out: Löslichkeit
[1] = Osmolality of aqueous solutions; format: physicochemical; settings: Lösungen in Wasser mit 300 mg I/ml bei 37°C
Method: (§1) Die Osmolalität und Viskosität beziehen sich auf Lösungen in Wasser mit 300 mg I/ml bei 37°C.

[2] = Viscosity of aqueous solutions; format: physicochemical; settings: Lösungen in Wasser mit 300 mg I/ml bei 37°C
Method: as §1

[3] = bei 300 mg I/ml; commercial contrast agents; cited from earlier work

Row | SMILES | solubility (Solubility) [mg/mL] | Osmolalität [1] [mOsmol/kg] | Viskosität [2] | Osmolalitäten [3] [mOsmol/kg]
1 | CNC(=O)c1c(I)c(C(=O)NCC(O)CO)c(I)c(N(CCCC(O)CO)C(C)=O)c1I (stereo not shown) [XIX, 5-(N-(4,5-dihydroxypentyl)-acetamido)-2,4,6-triiod-N-methyl-N'-(2,3-dihydroxypropyl)-isophthaldiamid] | > 1000 | 405 | 5,8 cps | –
2 | CNC(=O)c1c(I)c(N(CCCC(O)CO)C(C)=O)c(I)c(N(CCCC(O)CO)C(C)=O)c1I (stereo not shown) [VIII, 3,5-Bis(N-(4,5-dihydroxypentyl)-acetamido)-2,4,6-tri iodbenzoesäure-N-methylamid] | > 1000 | 330 | 7,5 cps | –
3 | CC(=O)N(CCC(O)CO)c1c(I)c(C(=O)N(C)C)c(I)c(N(CCC(O)CO)C(C)=O)c1I (stereo not shown) [VII, 3,5-Bis(N-(3,4-dihydroxybutyl)-acetamido)-2,4,6-triiodbenzoesäure-N,N-dimethylamid] | > 1000 | 535 | 4,5 cps | –
4 | CC(=O)N(CCCC(O)CO)c1c(I)c(C(=O)N(C)C)c(I)c(N(CCCC(O)CO)C(C)=O)c1I (stereo not shown) [IX, 3,5-Bis(N-(4,5-dihydroxypentyl)-acetamido)-2,4,6-triiodbenzoesäure-N,N-dimethylamid] | > 1000 | 500 | 6,3 cps | –
5 | CC(=O)Nc1c(I)c(C(=O)N[C@H]2C(O)O[C@H](CO)[C@@H](O)[C@@H]2O)c(I)c(N(C)C(C)=O)c1I (stereo partly shown) [Metrizamid] | – | – | – | 485
6 | CC(=O)N(CCC(O)CO)c1c(I)c(C(=O)N(C)CCN(C)C(=O)c2c(I)c(N(CCC(O)CO)C(C)=O)c(I)c(N(CCC(O)CO)C(C)=O)c2I)c(I)c(N(CCC(O)CO)C(C)=O)c1I (stereo not shown) [XV] | > 1000 | 255 | 16,5 cps | –
7 | CNC(=O)c1c(I)c(N(CCC(O)CO)C(C)=O)c(I)c(N(CCC(O)CO)C(C)=O)c1I (stereo not shown) [VI, 3,5-Bis(N-(3,4-dihydroxybutyl)-acetamido)-2,4,6-triiodbenzoesäure-N-methylamid] | > 1000 | 545 | 5,3 cps | –
